Laboratory results from patent publication US11737461B2, “Citrate perhydrates and uses thereof” (BIOREM ENGINEERING SA, priority 2018, dated 2023).

Legend:
[1] = system: Botrytis cinerea; conditions: samples at equivalent concentrations (0.2 M)
[2] = pH of an aqueous solution of the compound (pH meter); assay type: physicochemical; conditions: for pH: sample solution of Table 13 (0.2 M H2O2 and/or citrate)
[3] = other compound containing hydrogen peroxide, dissolved; cited from earlier work

Row | Compound | MIC Botrytis [1] | pH [2] | pH obtained by dissolving [3] | pH of an aqueous solution ([2]; diluted 20× in water)
1 | O=C(O)CC(O)(CC(=O)O)C(=O)O [Acide citrique, Citric acid] | non actif | – | – | –
2 | O.O.O.O=C([O-])CC(O)(CC(=O)[O-])C(=O)O.O=C([O-])CC(O)(CC(=O)[O-])C(=O)O.[Na+].[Na+].[Na+].[Na+] [Disodium citrate sesquihydrate] | non actif | 4.9 | – | –
3 | OO [Hydrogen peroxide] | non actif | 6.4 | – | –
4 | O=C([O-])[O-].O=C([O-])[O-].OO.OO.OO.[Na+].[Na+].[Na+].[Na+] [sodium percarbonate] | – | – | 11 | –
5 | O.O.O=C([O-])CC(O)(CC(=O)[O-])C(=O)[O-].OO.[Na+].[Na+].[Na+] [trisodium citrate monoperhydrate dihydrate] | 72 mM | 8.2 | – | 7.6 (±0.3)
6 | anhydrous disodium citrate monoperhydrate [disodium citrate perhydrate] | 108 mM | – | – | –
